The source of these data is patent publication US11203591B2, “Substituted 6-azabenzimidazole compounds” (Gilead Sciences, Inc., priority 2018, dated 2021).

A word on the IC50: it is the concentration that gives 50% inhibition.

Sequence of human HPK1 (MAP4K1) (Q92918 17-274): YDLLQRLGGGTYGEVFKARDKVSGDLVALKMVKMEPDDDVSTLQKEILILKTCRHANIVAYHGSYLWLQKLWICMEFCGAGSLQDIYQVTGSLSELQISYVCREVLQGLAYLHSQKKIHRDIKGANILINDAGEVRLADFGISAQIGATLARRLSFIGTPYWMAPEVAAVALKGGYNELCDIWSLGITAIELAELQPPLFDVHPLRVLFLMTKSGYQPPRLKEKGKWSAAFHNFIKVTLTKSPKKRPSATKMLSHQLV

The target in the first test is human HPK1 (MAP4K1) (Homo sapiens (Human), UniProt Q92918). The test can be described thus: HPK1 IC50 Assay (TR-FRET peptide phosphorylation). In kind it is biochemical. The note with it: 0.15 nM HPK1, 10 μM ATP, 1 μM STK S1 peptide substrate; geometric mean. Summed up:
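Pre-activated, dually phosphorylated baculovirus-expressed HPK1 kinase domain (0.15 nM) preincubated 15 min with compound, then reacted 3 h at 25° C with 10 μM ATP and 1 μM STK S1 peptide in BES pH 7.0 buffer. Phosphopeptide read by TR-FRET (665/620 nm); four-parameter fit, geometric-mean IC50.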
On the technique in general: TR-FRET usually uses a lanthanide donor and a delayed reading to cut background.
In turn, `CC(C)NC(=O)c1cc(Nc2nc(-c3cnc4c(c3)N([C@H]3C[C@@](C)(N5CCCCC5)C3)C(=O)C4(C)C)cc3ncn(C(C)C)c23)c(F)c(F)c1Cl` [Example 267, 2-chloro-5-((6-(3,3-dimethyl-1-((1s,3s)-3-methyl-3-(piperidin-1-yl)cyclobutyl)-2-oxo-2,3-dihydro-1H-pyrrolo[3,2-b]pyridin-6-yl)-3-isopropyl-3H-imidazo[4,5-c]pyridin-4-yl)amino)-3,4-difluoro-N-isopropylbenzamide] returned a half-inhibitory concentration (IC50) of 0.1 nM.

For the compound `CC(C)n1cnc2cc(-c3cnc4c(c3)N([C@]3(C)C[C@H](N5CCCCC5)C3)C(=O)C4(C)C)nc(Nc3cc(C(=O)NC4(C(F)F)CC4)c(Cl)c(F)c3F)c21` [Example 297, 2-Chloro-N-(1-(difluoromethyl)cyclopropyl)-5-((6-(3,3-dimethyl-1-((1s,3s)-1-methyl-3-(piperidin-1-yl)cyclobutyl)-2-oxo-2,3-dihydro-1H-pyrrol[3,2-b]pyridin-6-yl)-3-isopropyl-3H-imidazo[4,5-c]pyridin-4-yl)amino)-3,4-difluorobenzamide], the IC50 is 0.2 nM.

`CC(C)n1cnc2cc(-c3cnc4c(c3)N([C@H]3C[C@@](C)(N5CCCCC5)C3)C(=O)C4(C)C)nc(Nc3cc(C(=O)NCC(F)F)c(F)c(F)c3F)c21` [Example 274, N-(2,2-difluoroethyl)-5-((6-(3,3-dimethyl-1-((1s,3s)-3-methyl-3-(piperidin-1-yl)cyclobutyl)-2-oxo-2,3-dihydro-1H-pyrrolo[3,2-b]pyridin-6-yl)-3-isopropyl-3H-imidazo[4,5-c]pyridin-4-yl)amino)-2,3,4-trifluorobenzamide] showed a concentration for half-maximal inhibition (IC50) of 0.04 nM.

`CC(C)n1cnc2cc(-c3cc4c(nc3F)C(C)(C)C(=O)N4[C@H]3C[C@@](C)(N4CCCCC4)C3)nc(Nc3cc(C(=O)NCC(F)F)c(Cl)c(F)c3F)c21` [Example 272, 2-chloro-N-(2,2-difluoroethyl)-3,4-difluoro-5-((6-(5-fluoro-3,3-dimethyl-1-((1s,3s)-3-methyl-3-(piperidin-1-yl)cyclobutyl)-2-oxo-2,3-dihydro-1H-pyrrolo[3,2-b]pyridin-6-yl)-3-isopropyl-3H-imidazo[4,5-c]pyridin-4-yl)amino)benzamide]: the IC50 worked out at 0.09 nM.

The test is the same for the next values; noted with them: recombinant HPK1 kinase domain 0.15 nM, 10 μM ATP, 1 μM STK S1 peptide; geometric mean of multiple experiments.
Consider `CC(C)n1cnc2cc(-c3cnc4c(c3)N([C@H]3C[C@@](C)(N5CC[C@@H](F)C5)C3)C(=O)C4(C)C)nc(Nc3cc(C(=O)NC4(C(F)F)CC4)c(Cl)c(F)c3F)c21` [Example 200, 2-Chloro-N-(1-(difluoromethyl)cyclopropyl)-3,4-difluoro-5-((6-(1-((1S,3s)-3-((R)-3-fluoropyrrolidin-1-yl)-3-methylcyclobutyl)-3,3-dimethyl-2-oxo-2,3-dihydro-1H-pyrrolo[3,2-b]pyridin-6-yl)-3-isopropyl-3H-imidazo[4,5-c]pyridin-4-yl)amino)benzamide], for which the IC50 is 0.1 nM.

For `Cc1c(C(=O)NC2(C(F)F)CC2)cc(Nc2nc(-c3cnc4c(c3)N([C@H]3C[C@@](C)(N5CCCCC5)C3)CC4(C)C)cc3ncn(C(C)C)c23)c(F)c1F` [Example 214, N-(1-(Difluoromethyl)cyclopropyl)-5-((6-(3,3-dimethyl-1-((1s,3s)-3-methyl-3-(piperidin-1-yl)cyclobutyl)-2,3-dihydro-1H-pyrrolo[3,2-b]pyridin-6-yl)-3-isopropyl-3H-imidazo[4,5-c]pyridin-4-yl)amino)-3,4-difluoro-2-methylbenzamide], the IC50 was 0.1 nM.

Consider `Cc1ccc(Nc2nc(-c3ccc4c(c3)N([C@H]3C[C@@H](N5CCCCC5)C3)C(=O)C4(C)C)cc3ncn(C(C)C)c23)cc1C(=O)NC1(CF)CC1` [Example 174, 5-((6-(3,3-dimethyl-2-oxo-1-((1s,3s)-3-(piperidin-1-yl)cyclobutyl)indolin-6-yl)-3-isopropyl-3H-imidazo[4,5-c]pyridin-4-yl)amino)-N-(1-(fluoromethyl)cyclopropyl)-2-methylbenzamide], for which the IC50 is 0.09 nM.

`CNC(=O)c1cc(Nc2nc(-c3ccc4c(c3)N([C@H]3C[C@@H](N5CCCCC5)C3)C(=O)C43CCN(C(=O)C45CC(F)(C4)C5)CC3)cc3ncn(C4CC4)c23)ccc1C` [Example 154]: the half-inhibitory concentration (IC50) was determined as 0.06 nM.

As to `CCNC(=O)c1cc(Nc2nc(-c3ccc4c(c3)N([C@H]3C[C@@H](N5CCCCC5)C3)C(=O)C43CCN(C(=O)CC)CC3)cc3ncn(C(C)C)c23)c(F)cc1C` [Example 60], the IC50 is 0.2 nM.

As to `CC(=O)N1CCC2(CC1)C(=O)N([C@H]1C[C@@H](N3C4CCC3COC4)C1)c1cc(-c3cc4ncn(C(C)C)c4c(Nc4cc(C(=O)NC(C)C)c(C)cc4F)n3)ccc12` [Example 77], the IC50 worked out at 0.06 nM.

Take `CCc1ccc(Nc2nc(-c3ccc4c(c3)N([C@H]3C[C@@H](N5CCCCC5)C3)C(=O)C4(C)C)cc3ncn(C(C)C)c23)cc1C(=O)NC` [Example 143]: the IC50 was 0.06 nM.

Take `CNC(=O)c1cc(Nc2nc(-c3ccc4c(c3)N([C@H]3C[C@@H](N5CCC6(C5)CC6(F)F)C3)C(=O)C43CCN(C(C)=O)CC3)cc3ncn(C(C)C)c23)ccc1C` (stereo partly shown) [Example 164]: the IC50 was determined as 0.2 nM.

Take `CNC(=O)c1cc(Nc2nc(-c3ccc4c(c3)N([C@H]3C[C@@H](N5CCCCC5)C3)C(=O)C43CCOCC3)cc3ncn(C4CC4)c23)ccc1C` [Example 127]: the IC50 stood at 0.1 nM.

Take `CC[C@H](C)NC(=O)c1cc(Nc2nc(-c3ccc4c(c3)N([C@H]3C[C@@H](N5CCCCC5)C3)C(=O)C43CCN(C(C)=O)CC3)cc3ncn(C(C)C)c23)c(F)cc1C` [Example 88]: the IC50 turned out to be 0.2 nM.

As to `CC(C)n1cnc2cc(-c3cnc4c(c3)N([C@H]3C[C@@](C)(N5CCCCC5)C3)C(=O)C4(C)C)nc(Nc3cc(C(=O)NC4(C(F)F)CC4)ccc3F)c21` [Example 218, N-(1-(difluoromethyl)cyclopropyl)-3-((6-(3,3-dimethyl-1-((1s,3s)-3-methyl-3-(piperidin-1-yl)cyclobutyl)-2-oxo-2,3-dihydro-1H-pyrrolo[3,2-b]pyridin-6-yl)-3-isopropyl-3H-imidazo[4,5-c]pyridin-4-yl)amino)-4-fluorobenzamide], the IC50 came out at 0.06 nM.

Regarding `CNC(=O)c1cc(Nc2nc(-c3ccc4c(c3)N([C@H]3C[C@@H](N5CCCCC5)C3)C(=O)C43CCN(C4COC4)CC3)cc3ncn(C4CC4)c23)ccc1C` [Example 173], the IC50 was determined as 0.08 nM.

Turning to `CNC(=O)c1cc(Nc2nc(-c3ccc4c(c3)N([C@H]3C[C@@H](N5CCCCC5)C3)C(=O)C43CCOCC3)cc3ncn(C(C)C)c23)c(F)cc1C` [Example 35], the IC50 was determined as 0.1 nM.

As to `CC(=O)N1CCC2(CC1)C(=O)N([C@H]1C[C@@H](N3CC4CCC(C3)O4)C1)c1cc(-c3cc4ncn(C(C)C)c4c(Nc4cc(C(=O)NC(C)C)c(C)cc4F)n3)ccc12` [Example 78], the IC50 stood at 0.2 nM.

On to `Cc1c(C(=O)NC2(C(F)F)CC2)cc(Nc2nc(-c3cnc4c(c3)N(C3CC(C)(N5CCC6C[C@@H]6C5)C3)C(=O)C4(C)C)cc3ncn(C(C)C)c23)c(F)c1F` (stereo partly shown) [Example 233, 5-((6-(1-((1s,3s)-3-(3-azabicyclo[4.1.0]heptan-3-yl)-3-methylcyclobutyl)-3,3-dimethyl-2-oxo-2,3-dihydro-1H-pyrrolo[3,2-b]pyridin-6-yl)-3-isopropyl-3H-imidazo[4,5-c]pyridin-4-yl)amino)-N-(1-(difluoromethyl)cyclopropyl)-3,4-difluoro-2-methylbenzamide], for which the concentration for half-maximal inhibition (IC50) stood at 0.08 nM.

On to `Cc1ccc(Nc2nc(-c3ccc4c(c3)N([C@H]3C[C@@H](N5CCC[C@@H](F)C5)C3)C(=O)C4(C)C)cc3ncn(C4CC4)c23)cc1C(N)=O` [Example 17], for which the IC50 worked out at 0.04 nM.

`CNC(=O)c1cc(Nc2nc(-c3ccc4c(c3)N([C@H]3C[C@@H](N5CCCCC5)C3)C(=O)C43CCN(C(=O)C45CC(C4)C5)CC3)cc3ncn(C4CC4)c23)ccc1Cl` [Example 41]: the IC50 was found to be 0.07 nM.

Consider `Cc1ccc(Nc2nc(-c3ccc4c(c3)N([C@H]3C[C@@H](N5CCCCC5)C3)C(=O)C43CCN(CC(F)F)CC3)cc3ncn(C(C)C)c23)cc1C(=O)NC(C)C` [Example 62], for which the IC50 was 0.1 nM.

Take `CCC1(CC)C(=O)N([C@H]2C[C@@H](N3CCCCC3)C2)c2cc(-c3cc4ncn(C(C)C)c4c(Nc4ccc(C)c(C(=O)NC)c4)n3)ccc21` [Example 45]: the IC50 was 0.1 nM.

With `CNC(=O)c1cc(Nc2nc(-c3ccc4c(c3)N([C@H]3C[C@@H](N5CCCCC5)C3)C(=O)C43CCN(C(=O)C(C)(C)C)CC3)cc3ncn(C4CC4)c23)ccc1C` [Example 98], the IC50 is 0.09 nM.

Regarding `CC(=O)N1CCC2(CC1)C(=O)N([C@H]1C[C@@H](N3CCCCC3)C1)c1cc(-c3cc4ncn(C(C)C)c4c(Nc4ccc(C)c(C(=O)NC5CC5)c4)n3)ccc12` [Example 94], the 50% inhibitory concentration (IC50) worked out at 0.06 nM.

On to `CC(C)n1cnc2cc(-c3cnc4c(c3)N([C@H]3C[C@@](C)(N5CCCCC5)C3)C(=O)C4(C)C)nc(Nc3cc(C(=O)NC4(C(F)F)CC4)c(Cl)c(F)c3F)c21` [Example 207, 2-Chloro-N-(1-(difluoromethyl)cyclopropyl)-5-((6-(3,3-dimethyl-1-((1s,3s)-3-methyl-3-(piperidin-1-yl)cyclobutyl)-2-oxo-2,3-dihydro-1H-pyrrolo[3,2-b]pyridin-6-yl)-3-isopropyl-3H-imidazo[4,5-c]pyridin-4-yl)amino)-3,4-difluorobenzamide], for which the half-maximal inhibitory concentration (IC50) was found to be 0.08 nM.

For the compound `CCNC(=O)c1cc(Nc2nc(-c3ccc4c(c3)N([C@H]3C[C@@H](N5CCCCC5)C3)C(=O)C43CCN(C(C)=O)CC3)cc3ncn(C(C)C)c23)ccc1C` [Example 130], the IC50 was determined as 0.1 nM.

In the case of `CC(C)n1cnc2cc(-c3cnc4c(c3)N([C@H]3C[C@@](C)(N5CCCCCC5)C3)C(=O)C4(C)C)nc(Nc3cc(C(=O)NC4(CF)CC4)c(Cl)c(F)c3F)c21` [Example 249, 5-((6-(1-((1s,3s)-3-(azepan-1-yl)-3-methylcyclobutyl)-3,3-dimethyl-2-oxo-2,3-dihydro-1H-pyrrolo[3,2-b]pyridin-6-yl)-3-isopropyl-3H-imidazo[4,5-c]pyridin-4-yl)amino)-2-chloro-3,4-difluoro-N-(1-(fluoromethyl)cyclopropyl)benzamide], the IC50 is 0.04 nM.
